Data taken from US11179501B2, “Bone morphogenetic protein pathway activation, compositions for ossification, and methods related thereto” (Emory University, priority 2011, dated 2021).

What was measured:
C2C12 cells [1] = experiment: Alkaline phosphatase (ALP) assay: potentiation of BMP-2-induced ALP activity; conditions: for Fold increase in BMP-Potentiated ALP activity over BMP control: C2C12 cells, 50 ng/ml BMP-2, 72 hours
Procedure: (§1) Their activity was evaluated by determining the potentiation of alkaline phosphatase activity in sub-optimal doses of BMP in the presence or absence of exogenously added noggin.
The BMP-potentiating activities of compounds may be evaluated by monitoring several markers of the osteoblastic phenotype corresponding to various time points during phenotype differentiation of C2C12 cells towards terminally differentiated osteoblasts.
The C2C12 cells at passages 5 to 10 were subcultured in T-75 cm^2 flasks in DMEM supplemented with 10% FBS at 37° C. in 5% CO2 with humidification. When the flasks reached 80% confluence, the cells were trypsinized and seeded in triplicate.
The C2C12 cells were plated at 200,000 cells/well in 6-well plates and grown overnight in DMEM containing 10% FBS. On day 2, the culture medium was replaced with DMEM containing 2% FBS and the cells were treated with various concentrations of compound for 24 hours. On day 3, the culture medium was replaced with DMEM containing 2% FBS and the cells were treated with 50 ng/ml of BMP-2 and various concentrations of compound for 72 hours. The cells were washed with phosphate-buffered saline (PBS) and lysed by addition of lysis buffer (10 mM Tris-HCl pH 8.0, 1 mM MgCl2 and 1.0% Triton X-100). The cell lysates were centrifuged for 5 minutes at 13,000×g. The supernatant was removed and the aliquots were assayed for ALP activity and protein amount. The ALP activity was measured in triplicate using an ALP assay kit (Sigma-Aldrich, St. Louis, Mo.) in microtiter plates. The protein amount was determined with Bio-Rad protein assay reagent (Bio-Rad, Hercules, Calif.) using bovine serum albumin (BSA) as a standard. The ALP activity (nmoles of p-nitrophenol per ml) was normalized to the protein amount (nmoles of p-nitrophenol per μg).

C2C12 cells [2] = experiment: BMP-Noggin competitive alkaline phosphatase (ALP) assay; assay type: cell-based, Mouse; conditions: for Fold increase in Noggin-Inhibition ALP Assay over BMP alone control: BMP-2 90-100 ng/ml plus noggin 100-120 ng/ml, 72 hours; for cell lifting from culture plates: BMP-Noggin competitive ALP assay, low cell number and low yield of protein
Procedure: as §1
Mouse C2C12 cells and Dulbecco's modified Eagle's medium (DMEM) were purchased from ATCC (Manassas, Va.). The non-heat inactivated fetal bovine serum (FBS) was purchased from HyClone Laboratories, Inc. (Logan, Utah). The C2C12 cells at passages 5 to 10 were subcultured in T-75 cm^2 flasks in DMEM supplemented with 10% FBS at 37° C. in 5% CO2 with humidification. When the flasks reached 80% confluence, the cells were trypsinized and seeded in triplicate.
The C2C12 cells were plated at 200,000 cells/well in 6-well plates and grown overnight in DMEM containing 10% FBS. On day 2, the culture medium was replaced with DMEM containing 2% FBS and the cells were treated with 90-100 ng/ml of BMP-2 (as noted in each experiment), various concentrations of compound, and 100-120 ng/ml of noggin (as noted in each experiment) for 72 hours. The cells were washed with phosphate-buffered saline (PBS) and lysed by addition of lysis buffer (10 mM Tris-HCl pH 8.0, 1 mM MgCl2 and 1.0% Triton X-100). The cell lysates were centrifuged for 5 minutes at 13,000×g. The supernatant was removed and the aliquots were assayed for ALP activity and protein amount. The ALP activity was measured in triplicate using an ALP assay kit (Sigma-Aldrich, St. Louis, Mo.) in microtiter plates. The protein amount was determined with Bio-Rad protein assay reagent (Bio-Rad, Hercules, Calif.) using bovine serum albumin (BSA) as a standard. The ALP activity (nmoles of p-nitrophenol per ml) was normalized to the protein amount (nmoles of p-nitrophenol per μg).

Sprague Dawley rats = experiment: Collagen disc implantation with macrolides in rat ectopic model; assay type: in vivo; parameters: Ave. (Xray score): scale not given here; conditions: for Ave. (Xray score) / Results (bone, animals with bone of 4): 100 ul, collagen, no BMP-2, 4 weeks
Text: Sprague Dawley rats about 5-6 weeks of age were chest implanted with a collagen disc (diameter of 1.0 cm and height of 2.0 mm; total volume of 150 cubic millimeters) and doses of macrolides in the absence of BMP-2. After 4 weeks the rats were sacrificed and evaluated for bone growth. […] In certain embodiments, the disclosure contemplates local bone formation for fracture repair, segmental bone defects, spine fusion, bone grafting, and regional bone enhancement for osteopenic bones before they fracture (e.g. hip, vertebral body, etc) by deliver locally to induce local bone formation.

## O=C(O)CCCc1ccc(N(CCCl)CCCl)cc1 [Chlorambucil, chlorambucil]
C2C12 cells [1]
  Fold increase in BMP-Potentiated ALP activity over BMP control: 3
C2C12 cells [2]
  Fold increase in Noggin-Inhibition ALP Assay over BMP alone control: 4

## CCCc1nc2c(C)cc(-c3nc4ccccc4n3C)cc2n1Cc1ccc(-c2ccccc2C(=O)O)cc1 [Telmisartan, 4′-((1,7′-dimethyl-2′-propyl-1H,3′H-[2,5′-bibenzo[d]imidazol]-3′-yl)methyl)[1,1′-biphenyl]-2-carboxylic acid]
C2C12 cells [1]
  Fold increase in BMP-Potentiated ALP activity over BMP control: 3
C2C12 cells [2]
  Fold increase in Noggin-Inhibition ALP Assay over BMP alone control: 3

## C=CCC1C=C(C)CC(C)CC(OC)C2OC(O)(C(=O)C(=O)N3CCCCC3C(=O)OC(/C(C)=C/C3CCC(O)C(OC)C3)C(C)C(O)CC1=O)C(C)CC2OC (stereo not drawn) [Tacrolimus, 5,6,8,11,12,13,14,15, 16,17,18,19,24,25,26,26a-hexadecahydro-5,19-dihydroxy-3-[(1E)-2-[4-hydroxy-3-methoxycyclohexyl]-1-methylethenyl]-14,16-dimethoxy-4,10,12,18-tetramethyl-8-(2-propen-1-yl)-15,19-epoxy-3H-pyrido[2,1-c][1,4]oxaazacyclotricosine-1,7,20,21(4H,23H)-tetrone]
Sprague Dawley rats; dose 10 mM
  Ave. (Xray score): 0
  Results (bone, animals with bone of 4): No bone (0 of 4)
Sprague Dawley rats; dose 15 mM
  Ave. (Xray score): 0.5
  Results (bone, animals with bone of 4): Bone (1 of 4)
Sprague Dawley rats; dose 20 mM
  Ave. (Xray score): 3.25
  Results (bone, animals with bone of 4): Bone (3 of 4)
Sprague Dawley rats; dose 25 mM
  Ave. (Xray score): 4.25
  Results (bone, animals with bone of 4): Bone (4 of 4)
Sprague Dawley rats; dose 30 mM
  Ave. (Xray score): 2.5
  Results (bone, animals with bone of 4): Bone (3 of 4)
Sprague Dawley rats; dose 35 mM
  Ave. (Xray score): 4
  Results (bone, animals with bone of 4): Bone (4 of 4)
Sprague Dawley rats; local, collagen disc, chest implant, absence of BMP-2, 4 weeks
  De novo bone formation: De novo bone formation is demonstrated locally
C2C12 cells [1]
  Fold increase in BMP-Potentiated ALP activity over BMP control: 7
C2C12 cells [2]
  Fold increase in Noggin-Inhibition ALP Assay over BMP alone control: 5

## CC1=C(/C=C/C(C)=C/C=C/C(C)=C/C(=O)O)C(C)(C)CCC1 [Retinoic acid, (2E,4E,6E,8E)-3,7-dimethyl-9-(2,6,6-trimethylcyclohexen-1-yl)nona-2,4,6,8-tetraenoic acid]
C2C12 cells [1]
  Fold increase in BMP-Potentiated ALP activity over BMP control: 11
C2C12 cells [2]
  Fold increase in Noggin-Inhibition ALP Assay over BMP alone control: 2

## Clc1ccccc1C(c1ccccc1)(c1ccccc1)n1ccnc1 [Clotrimazole, 1-[(2-chlorophenyl)diphenylmethyl]-1H-imidazole]
C2C12 cells [1]
  Fold increase in BMP-Potentiated ALP activity over BMP control: 7
C2C12 cells [1]; nanomolar concentrations, FIG. 5
  BMP-induced ALP activity: dose dependent increase
C2C12 cells [2]
  Fold increase in Noggin-Inhibition ALP Assay over BMP alone control: 4

## CC(=O)S[C@@H]1CC2=CC(=O)CC[C@]2(C)[C@H]2CC[C@@]3(C)[C@@H](CC[C@@]34CCC(=O)O4)[C@H]12 [Spironolactone, spironolactone]
C2C12 cells [1]
  Fold increase in BMP-Potentiated ALP activity over BMP control: 3
C2C12 cells [2]
  Fold increase in Noggin-Inhibition ALP Assay over BMP alone control: 4

## CC(=O)NC[C@H]1CN(c2ccc(N3CCOCC3)c(F)c2)C(=O)O1 [Linezolid, N-[[(5S)-3-[3-fluoro-4-(4-morpholinyl)phenyl]-2-oxo-5-oxazolidinyl]methyl]-acetamide]
C2C12 cells [1]
  Fold increase in BMP-Potentiated ALP activity over BMP control: 5
C2C12 cells [2]
  Fold increase in Noggin-Inhibition ALP Assay over BMP alone control: 3

## COc1cc(C)c(/C=C/C(C)=C/C=C/C(C)=C/C(=O)O)c(C)c1C [Acitretin, acitretin]
C2C12 cells [1]
  Fold increase in BMP-Potentiated ALP activity over BMP control: 33
C2C12 cells [2]
  Fold increase in Noggin-Inhibition ALP Assay over BMP alone control: 3

## CCC(=O)O[C@]1(C(=O)SCF)[C@H](C)C[C@H]2[C@@H]3C[C@H](F)C4=CC(=O)C=C[C@]4(C)[C@@]3(F)[C@@H](O)C[C@@]21C [Fluticasone Propionate, 6,9-difluoro-11-hydroxy-16-methyl-3-oxo-17-(1-oxopropoxy)-androsta-1,4-diene-17-carbothioic acid S-(fluoromethyl) ester]
C2C12 cells [1]
  Fold increase in BMP-Potentiated ALP activity over BMP control: 6
C2C12 cells [2]
  Fold increase in Noggin-Inhibition ALP Assay over BMP alone control: 3

## C[C@H]1[C@H](OC(=O)CCC(=O)O)O[C@@H]2O[C@@]3(C)CC[C@H]4[C@H](C)CC[C@@H]1[C@@]24OO3 [Artesunate, 4-oxo-4-(((3R,5aS,6R,8aS,9R,10R,12R,12aR)-3,6,9-trimethyldecahydro-3H-3,12-epoxy[1,2]dioxepino[4,3-i]isochromen-10-yl)oxy)butanoic acid]
C2C12 cells [2]
  cell lifting from culture plates: caused cell lifting from culture plates

## COc1cc(CNC(=O)CCCCC=CC(C)C)ccc1O [Capsaicin, N-(4-hydroxy-3-methoxybenzyl)-8-methylnon-6-enamide]
C2C12 cells [2]
  cell lifting from culture plates: caused cell lifting from culture plates

## CC1=C(/C=C/C(C)=C/C=C/C(C)=C\C(=O)O)C(C)(C)CCC1 [Isotretinoin, isotretinoin]
C2C12 cells [1]
  Fold increase in BMP-Potentiated ALP activity over BMP control: 30
C2C12 cells [2]
  Fold increase in Noggin-Inhibition ALP Assay over BMP alone control: 3

## Nc1ccn([C@@H]2O[C@H](CO)[C@@H](O)[C@@H]2O)c(=O)n1 [cytarabine]
C2C12 cells [2]
  cell lifting from culture plates: caused cell lifting from culture plates

## C=CCc1ccc(O)c(-c2ccc(O)c(CC=C)c2)c1 [Honokiol, 3′,5-di-2-propen-1-yl-[1,1′-biphenyl]-2,4′-diol]
C2C12 cells [1]
  Fold increase in BMP-Potentiated ALP activity over BMP control: 5
C2C12 cells [2]
  Fold increase in Noggin-Inhibition ALP Assay over BMP alone control: 16
